The values below come from patent US20050031604A1, “Isolation and purification procedure of vasopeptidase peptide inhibitors” (priority 2002, published 2005).

Experiment [1] deals with T1, C site of the ACE (human angiotensin converting enzyme mutant with only the C-terminal active site functional) (Homo sapiens, UniProt P12821, H390K/H394K).
T1 construct: The two ACE mutants were expressed as full-length proteins; made in house
Kind of experiment: Enzymatic assay of inhibition of the C-site of recombinant ACE. In kind it is biochemical. The protocol:
(§1) The wild-type human angiotensin converting enzyme (ACE) and two mutants, containing only one functional active site, were obtained through stable transfection of chinese hamster ovary cells with the ACE encoding cDNA. The two ACE mutants were expressed as full-length proteins, presenting one of the catalytic sites, N- or C-terminal, inactivated by substitution of the zinc binding histidine residues by lysine residues.
(§2) The enzymatic assays were carried out at 25° C. with the substrate Mca-Ala-Ser-Asp-Lys-DpaOH, in a 50 mM Hepes buffer, pH 6.8, containing 200 mM NaCl and 10 μM ZnCl2. The reactions were continuously monitored by determining the raise in fluorescence at 390 nm emission wave length, and excitation at 340 nm, caused by the cleavage of the substrate (S=Km, 40 μM) by ACE, in a fluorimeter Fluorolite 10000 (Dynatech). The bradykinin potentiating peptides (BPPs) (inhibitors, were pre-incubated with the enzyme 90 min before the addition of the substrate.

Experiment [2] has as its target T2, N site of the ACE (human angiotensin converting enzyme mutant with only the N-terminal active site functional) (Homo sapiens, UniProt P12821, H988K/H992K).
T2 construct: The two ACE mutants were expressed as full-length proteins; made in house
Kind of experiment: Enzymatic assay of inhibition of the N-site of recombinant ACE. The experiment is classed as biochemical. To be noted: pentapeptide, range stated in words. The protocol:
as §1, §2

The target in experiment [3] is NEP (Homo sapiens, UniProt P08473). Kind of experiment: Inhibition of NEP. In kind it is biochemical.
Chain of NEP (P08473 whole entry): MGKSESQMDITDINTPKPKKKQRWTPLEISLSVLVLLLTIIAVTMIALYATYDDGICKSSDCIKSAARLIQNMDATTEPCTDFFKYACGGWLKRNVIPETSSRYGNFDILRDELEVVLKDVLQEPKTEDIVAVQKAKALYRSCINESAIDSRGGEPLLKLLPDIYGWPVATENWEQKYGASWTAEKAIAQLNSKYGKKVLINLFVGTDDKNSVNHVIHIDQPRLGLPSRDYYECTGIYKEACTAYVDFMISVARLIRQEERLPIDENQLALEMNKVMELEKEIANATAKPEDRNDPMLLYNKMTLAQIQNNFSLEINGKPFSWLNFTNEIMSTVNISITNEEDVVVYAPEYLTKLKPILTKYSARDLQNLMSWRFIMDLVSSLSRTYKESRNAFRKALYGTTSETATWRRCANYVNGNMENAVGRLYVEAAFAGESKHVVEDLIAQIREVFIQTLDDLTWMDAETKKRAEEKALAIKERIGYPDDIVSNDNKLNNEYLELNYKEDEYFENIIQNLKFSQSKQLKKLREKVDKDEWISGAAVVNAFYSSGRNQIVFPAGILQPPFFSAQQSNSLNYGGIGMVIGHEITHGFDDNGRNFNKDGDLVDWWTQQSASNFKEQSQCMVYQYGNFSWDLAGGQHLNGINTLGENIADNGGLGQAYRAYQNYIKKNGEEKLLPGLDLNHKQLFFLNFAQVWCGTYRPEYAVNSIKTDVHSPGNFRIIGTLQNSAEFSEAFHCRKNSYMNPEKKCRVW
Experiment [4] deals with isolated guinea pig ileum. Description: Potentiation of the contractile activity of bradykinin on isolated guinea pig ileum. The protocol: The potentiating activity of the pools of isolated peptides was tested on the contractile activity of bradykinin on smooth muscle, measured using a preparation of isolated guinea pig ileum. Female guinea pigs with a body weight between 160 and 180 g were used. Before starting the assays, the ileum was kept in TYRODE solution at 37° C. for 30 min. One of the ends of the isolated ileum segment, measuring 1.5 to 2.0 cm, was tied to a semi-ring located at the bottom of a glass container with a capacity of 5 mL, containing the TYRODE physiological solution at 37° C. under constant oxygen bubbling through a capillary. The other extremity of the ileum segment was tied to a previously calibrated registering arm. The tension on the arm was of 1 g, and the ileum contractions were recorded by an REC101 recorder (Pharmacia Biotech).
In order to determine the bradykinin potentiating effect of the samples, a log-dose curve of the effect of bradykinin on the ileum was plotted. Bradykinin activity was determined by measuring the contractions of the isolated guinea pig ileum, and the potentiating activity was expressed as a function of the increase in tissue response to a standard dose of bradykinin.
Pools and fractions were assayed individually and were added 30 seconds before the addition of a simple dose of bradykinin. […]

Experiment [5] relates to rat arterial blood pressure. Description: Potentiation of the hypotensive effect of bradykinin in rats. In kind it is in vivo. The settings on record: concentrations of 300 nM. The protocol: The hypotensive potentiating activity effect of bradykinin was tested in normotensive and hypertensive male and female Wistar rats, anesthetized with ethylic ether; a cannulae was introduced in the femoral vein for drug administration and in the femoral artery for blood pressure recording. A Gould polygraph was used coupled to a Statham Gould physiological transducer. The arterial pressure variation values were obtained by integration of the areas delimited by the pressure base line, and by comparing them with the values obtained in the control experiment. Toxin effect tests were carried out in normotensive and hypertensive rats by intra-vital microscopy using the mesenteric circulation. The animals were anesthetized, and their body temperature maintained by a heated plate, while the mesentery was trans-illuminated and observed through lenses coupled to a television camera. The vase diameters of these animals were measured with a micrometric screw. Tested substances were administered by a constant flow peristaltic pump or injected in bolus.
Wistar male rats with a body weight between 180 and 220 g were anesthetized with sodic pentabarbital (Hypnol® Cristalia, 50 mg/kg of body weight, intraperitoneally), while the body temperature was maintained between 36.5° C. and 37° C. by a heated plate. […]

Molecules are shown by their SMILES. Non-standard residues stand in square brackets, D forms with d. Residues, ends and D or L forms follow the SMILES beside them. pGlu = O=C1CC[C@@H](C(=O)O)N1

T1 sequence (P12821 30-1306 H390K/H394K): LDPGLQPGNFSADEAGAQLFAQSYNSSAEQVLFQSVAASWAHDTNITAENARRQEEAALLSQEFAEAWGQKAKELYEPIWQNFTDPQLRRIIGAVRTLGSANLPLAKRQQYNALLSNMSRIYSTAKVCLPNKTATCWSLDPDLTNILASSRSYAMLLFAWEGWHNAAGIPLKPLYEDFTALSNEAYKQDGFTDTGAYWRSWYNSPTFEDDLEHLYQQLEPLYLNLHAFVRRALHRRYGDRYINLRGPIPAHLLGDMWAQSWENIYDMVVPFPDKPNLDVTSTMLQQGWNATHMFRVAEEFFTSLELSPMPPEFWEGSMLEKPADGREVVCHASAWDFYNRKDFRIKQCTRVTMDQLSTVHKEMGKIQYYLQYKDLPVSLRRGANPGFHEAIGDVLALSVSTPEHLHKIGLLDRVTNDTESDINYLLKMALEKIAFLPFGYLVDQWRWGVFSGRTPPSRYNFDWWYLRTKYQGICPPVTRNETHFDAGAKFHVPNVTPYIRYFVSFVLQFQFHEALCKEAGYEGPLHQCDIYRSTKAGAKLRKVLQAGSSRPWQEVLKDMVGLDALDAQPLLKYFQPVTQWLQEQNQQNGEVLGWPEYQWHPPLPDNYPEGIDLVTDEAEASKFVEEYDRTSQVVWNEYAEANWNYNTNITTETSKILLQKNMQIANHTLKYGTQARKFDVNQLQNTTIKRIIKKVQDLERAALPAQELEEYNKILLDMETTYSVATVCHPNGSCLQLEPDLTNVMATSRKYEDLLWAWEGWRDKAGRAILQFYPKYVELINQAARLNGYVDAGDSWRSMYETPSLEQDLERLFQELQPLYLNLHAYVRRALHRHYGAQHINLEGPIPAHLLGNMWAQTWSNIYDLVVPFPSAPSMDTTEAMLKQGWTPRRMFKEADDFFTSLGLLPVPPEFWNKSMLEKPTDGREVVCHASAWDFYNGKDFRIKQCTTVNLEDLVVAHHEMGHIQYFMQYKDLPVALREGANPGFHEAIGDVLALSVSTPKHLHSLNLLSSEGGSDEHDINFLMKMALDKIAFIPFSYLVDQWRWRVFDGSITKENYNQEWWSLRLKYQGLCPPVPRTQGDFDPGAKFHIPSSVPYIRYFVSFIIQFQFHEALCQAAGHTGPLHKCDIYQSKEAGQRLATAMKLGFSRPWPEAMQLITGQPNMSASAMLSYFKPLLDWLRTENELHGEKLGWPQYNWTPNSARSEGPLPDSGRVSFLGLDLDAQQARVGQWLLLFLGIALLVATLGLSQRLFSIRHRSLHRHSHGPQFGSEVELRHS
T2 sequence (P12821 30-1306 H988K/H992K): as the sequence (P12821 30-1306 H390K/H394K) above, with K361H, K365H, H959K, H963K counted along it

On to `C[C@H](NC(=O)[C@H](Cc1c[nH]c2ccccc12)NC(=O)[C@H](CCCCN)NC(=O)[C@@H]1CCC(=O)N1)C(=O)N1CCC[C@H]1C(=O)O` [<E K W A P, Pyroglutamyl(<E)-Lysine(K)-tryptophane(W)-Alanine(A)-Proline (P)] ([pGlu]KWAP-OH), for which the “selectivity for the C-site of the ACE” value in experiment [1] (C site versus N site) is reported as “not presenting a defined selectivity”. Further, in experiment [1] (pentapeptide, range stated in words), the “Ki for the C site of the ACE” value was “in the μM range”. The “Ki for the N site of the ACE” value in experiment [2] is on record as “in the μM range”. Further, the Ki (in general, the equilibrium dissociation constant of an inhibitor or competing ligand from its target) in experiment [3] lay within 50 to 150 µM. The “concentrations that potentiate the contractile action of bradykinin on isolated guinea pig ileum” value in experiment [4] is 15 to 300 nM. Further, in experiment [5], the “increase in the duration of the hypotensive effect compared to bradykinin alone” value came to 5 fold and the “potentiation of the hypotensive effect of bradykinin” value was found to be 60%.
